{"source": "PubChem BioAssay AID256", "about": "(DTP/NCI, 2004)", "system": "CD2F1 mice, L1210 leukemia ip, survival T/C", "assay": "NCI In Vivo Anticancer Drug Screen. Data for tumor model L1210 Leukemia (intraperitoneal) in CD2F1 (CDF1) mice", "conditions": "higher = longer survival", "summary_of_the_method": "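Ratio T/C, where T is the treated-group value and C the vehicle-dosed control value, from mice implanted with a transplantable tumor.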", "key": {"[1]": {"conditions": "endpoint: mean survival time, dose: 200.0 mg/kg/injection, schedule: Q01DX001 (ip), vehicle: saline with Tween-80"}, "[2]": {"conditions": "endpoint: mean survival time, dose: 100.0 mg/kg/injection, schedule: Q01DX009 (ip), vehicle: saline with Tween-80"}, "[3]": {"conditions": "endpoint: mean survival time, dose: 200.0 mg/kg/injection, schedule: Q01DX009 (ip), vehicle: saline with Tween-80"}, "[4]": {"conditions": "endpoint: mean survival time, dose: 400.0 mg/kg/injection, schedule: Q01DX009 (ip), vehicle: saline with Tween-80"}, "[5]": {"conditions": "endpoint: mean survival time, dose: 100.0 mg/kg/injection, schedule: Q04DX003 (ip), vehicle: saline with Tween-80"}, "[6]": {"conditions": "endpoint: mean survival time, dose: 200.0 mg/kg/injection, schedule: Q04DX003 (ip), vehicle: saline with Tween-80"}, "[7]": {"conditions": "endpoint: mean survival time, dose: 400.0 mg/kg/injection, schedule: Q04DX003 (ip), vehicle: saline with Tween-80"}}, "note": "Several values for one entry are separate records, joined by “and”; a condition that tells them apart may be missing. Equal entries are not always repeated. Toxic doses and inconclusive results are not listed."}
{"molecule": "O=C(O)C1(C(=O)O)CCCCC1.[NH2-].[NH2-].[Pt+2]", "values": [{"measurement": "T/C", "setting": "endpoint: mean survival time, dose: 12.5 mg/kg/injection, schedule: Q04DX003 (ip), vehicle: suspension in saline", "value": "108 % of control"}, {"measurement": "T/C", "setting": "endpoint: mean survival time, dose: 25.0 mg/kg/injection, schedule: Q04DX003 (ip), vehicle: suspension in saline", "value": "122 % of control"}, {"measurement": "T/C", "setting": "endpoint: mean survival time, dose: 80.0 mg/kg/injection, schedule: Q04DX003 (ip), vehicle: saline", "value": "182 % of control"}, {"measurement": "T/C", "setting": "endpoint: mean survival time, dose: 100.0 mg/kg/injection, schedule: Q04DX003 (ip), vehicle: suspension in saline", "value": "112 % of control"}]}
{"molecule": "C[N+](C)(C)CCC(=O)c1ccc(C(=O)CC[N+](C)(C)C)cc1", "values": [{"measurement": "T/C", "setting": "endpoint: mean survival time, dose: 50.0 mg/kg/injection, schedule: Q04DX002 (ip), vehicle: saline", "value": "96 % of control"}, {"measurement": "T/C", "setting": "endpoint: mean survival time, dose: 100.0 mg/kg/injection, schedule: Q01DX001 (ip), vehicle: saline with Tween-80", "value": "100 % of control"}, {"measurement": "T/C", "setting": "endpoint: mean survival time, dose: 100.0 mg/kg/injection, schedule: Q04DX002 (ip), vehicle: saline", "value": "96 % of control"}, {"measurement": "T/C", "setting": "[1]", "value": "94 % of control"}, {"measurement": "T/C", "setting": "endpoint: mean survival time, dose: 200.0 mg/kg/injection, schedule: Q04DX002 (ip), vehicle: saline", "value": "96 % of control"}]}
{"molecule": "CC(=O)CC(=O)C(F)(F)F.CC(=O)CC(=O)C(F)(F)F.[Ni]", "values": [{"measurement": "T/C", "setting": "endpoint: median survival time, dose: 25.0 mg/kg/injection, schedule: Q04DX002 (ip), vehicle: saline with Tween-80", "value": "100 % of control"}, {"measurement": "T/C", "setting": "endpoint: median survival time, dose: 50.0 mg/kg/injection, schedule: Q04DX002 (ip), vehicle: saline with Tween-80", "value": "122 % of control"}]}
{"molecule": "CCc1ccc2ccccc2c1N", "values": [{"measurement": "T/C", "setting": "endpoint: mean survival time, dose: 50.0 mg/kg/injection, schedule: Q01DX009 (ip), vehicle: saline with Tween-80", "value": "108 % of control"}, {"measurement": "T/C", "setting": "[2]", "value": "110 % of control"}, {"measurement": "T/C", "setting": "[1]", "value": "94 % of control"}, {"measurement": "T/C", "setting": "[3]", "value": "118 % of control"}]}
{"molecule": "COC(=O)Nc1cccc(OC(=O)N(C)C)c1", "values": [{"measurement": "T/C", "setting": "[2]", "value": "97 % of control"}, {"measurement": "T/C", "setting": "[3]", "value": "97 % of control"}, {"measurement": "T/C", "setting": "[4]", "value": "96 % of control"}]}
{"molecule": "O=C(NO)c1ccncc1", "values": [{"measurement": "T/C", "setting": "endpoint: mean survival time, dose: 50.0 mg/kg/injection, schedule: Q01DX001 (ip), vehicle: saline", "value": "106 % of control"}, {"measurement": "T/C", "setting": "endpoint: mean survival time, dose: 100.0 mg/kg/injection, schedule: Q01DX001 (ip), vehicle: saline", "value": "103 % of control"}, {"measurement": "T/C", "setting": "endpoint: mean survival time, dose: 100.0 mg/kg/injection, schedule: Q01DX009 (ip), vehicle: saline", "value": "102 % of control"}, {"measurement": "T/C", "setting": "endpoint: mean survival time, dose: 100.0 mg/kg/injection, schedule: Q04DX003 (ip), vehicle: saline", "value": "91 % of control"}, {"measurement": "T/C", "setting": "endpoint: mean survival time, dose: 200.0 mg/kg/injection, schedule: Q01DX001 (ip), vehicle: saline", "value": "110 % of control"}, {"measurement": "T/C", "setting": "endpoint: mean survival time, dose: 200.0 mg/kg/injection, schedule: Q01DX009 (ip), vehicle: saline", "value": "104 % of control"}, {"measurement": "T/C", "setting": "endpoint: mean survival time, dose: 200.0 mg/kg/injection, schedule: Q04DX003 (ip), vehicle: saline", "value": "94 % of control"}, {"measurement": "T/C", "setting": "endpoint: mean survival time, dose: 400.0 mg/kg/injection, schedule: Q01DX001 (ip), vehicle: saline", "value": "97 % of control"}, {"measurement": "T/C", "setting": "endpoint: mean survival time, dose: 400.0 mg/kg/injection, schedule: Q01DX009 (ip), vehicle: saline", "value": "107 % of control"}, {"measurement": "T/C", "setting": "endpoint: mean survival time, dose: 400.0 mg/kg/injection, schedule: Q04DX003 (ip), vehicle: saline", "value": "94 % of control"}]}
{"molecule": "OCC1OC([Se])C(O)C(O)C1O.[CH3][Sb][CH3]", "note": "(stereo not drawn)", "values": [{"measurement": "T/C", "setting": "endpoint: mean survival time, dose: 50.0 mg/kg/injection, schedule: Q01DX009 (ip), vehicle: Klucel (hydroxypropylcellulose) (HPC)", "value": "88 % of control"}]}
{"molecule": "Cc1ccccc1OCc1ccccc1", "values": [{"measurement": "T/C", "setting": "endpoint: mean survival time, dose: 50.0 mg/kg/injection, schedule: Q04DX003 (ip), vehicle: saline with Tween-80", "value": "104 % of control"}, {"measurement": "T/C", "setting": "[5]", "value": "98 % of control and 101 % of control"}, {"measurement": "T/C", "setting": "[6]", "value": "102 % of control and 104 % of control"}, {"measurement": "T/C", "setting": "[7]", "value": "94 % of control"}]}
{"molecule": "COC(=O)C(Br)C(OC)c1ccc(C)cc1", "note": "(stereo not drawn)", "values": [{"measurement": "T/C", "setting": "[2]", "value": "94 % of control"}, {"measurement": "T/C", "setting": "endpoint: mean survival time, dose: 100.0 mg/kg/injection, schedule: Q04DX003 (ip), vehicle: saline sonified", "value": "95 % of control"}, {"measurement": "T/C", "setting": "[3]", "value": "96 % of control"}, {"measurement": "T/C", "setting": "endpoint: mean survival time, dose: 200.0 mg/kg/injection, schedule: Q04DX003 (ip), vehicle: saline sonified", "value": "91 % of control"}, {"measurement": "T/C", "setting": "[4]", "value": "90 % of control"}, {"measurement": "T/C", "setting": "endpoint: mean survival time, dose: 400.0 mg/kg/injection, schedule: Q04DX003 (ip), vehicle: saline sonified", "value": "101 % of control"}]}
{"molecule": "O=C(O)c1cccnc1F", "values": [{"measurement": "T/C", "setting": "[5]", "value": "94 % of control"}, {"measurement": "T/C", "setting": "[6]", "value": "98 % of control"}, {"measurement": "T/C", "setting": "[7]", "value": "96 % of control"}]}
{"molecule": "Cc1cc(C(=O)c2ccccn2)c2cc(Cl)cc(Cl)c2n1", "values": [{"measurement": "T/C", "setting": "[2]", "value": "93 % of control"}, {"measurement": "T/C", "setting": "[5]", "value": "88 % of control"}, {"measurement": "T/C", "setting": "[3]", "value": "91 % of control"}, {"measurement": "T/C", "setting": "[6]", "value": "94 % of control"}, {"measurement": "T/C", "setting": "[4]", "value": "87 % of control"}, {"measurement": "T/C", "setting": "[7]", "value": "94 % of control"}]}
{"molecule": "C(=NCc1ccccc1)c1ccc2c(c1)OCO2", "values": [{"measurement": "T/C", "setting": "endpoint: mean survival time, dose: 100.0 mg/kg/injection, schedule: Q04DX002 (ip), vehicle: saline with Tween-80", "value": "100 % of control"}, {"measurement": "T/C", "setting": "endpoint: mean survival time, dose: 200.0 mg/kg/injection, schedule: Q04DX002 (ip), vehicle: saline with Tween-80", "value": "100 % of control"}, {"measurement": "T/C", "setting": "endpoint: mean survival time, dose: 400.0 mg/kg/injection, schedule: Q04DX002 (ip), vehicle: saline with Tween-80", "value": "100 % of control"}]}
{"molecule": "OC(CC1CCCC(CC(O)c2ccccc2)N1CCc1ccccc1)c1ccccc1", "note": "(stereo not drawn)", "values": [{"measurement": "T/C", "setting": "endpoint: mean survival time, dose: 75.0 mg/kg/injection, schedule: Q01DX001 (ip), vehicle: saline", "value": "97 % of control"}, {"measurement": "T/C", "setting": "endpoint: mean survival time, dose: 150.0 mg/kg/injection, schedule: Q01DX001 (ip), vehicle: saline", "value": "91 % of control"}]}
